For one compound, EC50 results are on record in ChEMBL document CHEMBL1136407, “Binding mode of 6ECDCA, a potent bile acid agonist of the farnesoid X receptor (FXR)” (Bioorg Med Chem Lett, 2003).

The target in the experiment is T1, Bile acid receptor (Homo sapiens, UniProt Q96RI1).
T1 sequence (Q96RI1 whole entry): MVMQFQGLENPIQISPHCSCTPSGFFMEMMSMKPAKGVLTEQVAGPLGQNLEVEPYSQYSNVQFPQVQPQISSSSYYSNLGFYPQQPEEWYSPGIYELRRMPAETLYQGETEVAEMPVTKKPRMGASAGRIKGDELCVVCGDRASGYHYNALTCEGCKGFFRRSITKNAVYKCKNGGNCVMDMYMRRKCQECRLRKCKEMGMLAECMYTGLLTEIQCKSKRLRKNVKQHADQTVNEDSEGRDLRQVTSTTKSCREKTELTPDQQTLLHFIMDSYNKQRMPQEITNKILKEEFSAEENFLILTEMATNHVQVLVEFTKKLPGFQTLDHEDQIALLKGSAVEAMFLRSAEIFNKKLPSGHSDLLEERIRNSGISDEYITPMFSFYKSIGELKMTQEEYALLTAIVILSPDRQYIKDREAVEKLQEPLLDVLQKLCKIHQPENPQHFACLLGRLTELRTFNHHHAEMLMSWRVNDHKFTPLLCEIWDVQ
Briefly: Binding affinity for Farnesoid X Receptor (FXR).

With `C[C@H](CCC(=O)O)C1CC[C@H]2[C@@H]3[C@H](O)[C@H](Cc4ccccc4)C4C[C@H](O)CC[C@]4(C)[C@H]3CC[C@]12C` (stereo partly specified), the concentration giving a half-maximal response (EC50) (usually the midpoint of the concentration-response curve) was over 30 µM.
